Assay results from patent publication US20180362993A1, “ELICITOR-DERIVED PEPTIDES AND USE THEREOF” (Plant Health Care, Inc., priority 2017, published 2018).
Marks after values point to notes of the source that are not given here.

Columns and labels:
Assay type in all cases: in vivo
[1] = tested on: tobacco mosaic virus (TMV); experiment: Induction of resistance to tobacco mosaic virus in tobacco (foliar spray); settings: 20 μg/ml spray; for Effectiveness Covered (% decline in TMV lesions vs UTC): covered leaf (systemic response); for Effectiveness Uncovered (% decline in TMV lesions vs UTC): uncovered leaf (local response)
Protocol: Peptides were tested for the induction of resistance to tobacco mosaic virus (TMV) in tobacco. Briefly, three tobacco plants at 6-8 weeks old were selected per group (samples and controls). The bottom-most leaf of the plant was covered and the plant was sprayed with a solution of water (untreated control—UTC), peptide, or Proact (positive control). The spray was applied until the leaves were fully wetted, indicated by liquid dripping from the leaves. The plants were then allowed to dry and the leaf covering was removed.
Three days post-treatment, the previously-covered leaf and a leaf on the opposite side of the plant were then lightly dusted with diatomaceous earth and 20 ul of a 1.7 μg/ml solution of purified tobacco mosaic virus was applied. The TMV solution was then spread across the leaf surface by lightly rubbing solution and the diatomaceous earth across the surface of the leaves. Two minutes after inoculation, the diatomaceous earth was rinsed off the leaves with water. 3 days after TMV inoculation, the leaves were scored based on the number of TMV lesions observed. The leaf was also scored for signs of the hypersensitive response, including yellowing and wilting of the affected leaves.
Effectiveness described in Table 5 refers to the % decline in TMV lesions on treated vs UTC plants. A reduction of TMV on covered leaves indicates a systemic immune response in the plant while reduction on uncovered leaves indicates a local response. Asterisks indicate that the P-value derived from a T-test was <0.05.

[2] = tested on: corn; experiment: Drought resistance in corn (foliar spray); settings: for Dry Weight Increase / Fresh Weight Increase: corn, vs untreated control
Protocol: The effectiveness of peptide treatment in reducing drought stress was assessed in corn. 3.5 inch pots were filled with Sunshine #1 soil (SunGro Horticulture), fertilized with a 20-10-20 mixture. The soil was soaked and drained overnight. Seeds (either corn or soy, manually inspected to ensure uniform seed size) were planted at a depth of 1 inch for germination. Plants were grown in a greenhouse under 16 hour light days at >70° F. and 8 hour dark nights at >65° F. Prior to drought conditions, the plants were well-watered.
When the plants reached the V1 stage, plants were culled to achieve a uniform height (abnormally large and small plants were removed). Plants were then randomly assigned to control (spray without peptide) or treatment (spray with peptide) groups and heights were measured. Peptide was made up in a solution of 0.2 μg/ml or 2μg/ml in distilled water+0.01% Tween-20, and applied as a fine mist from a spray bottle until the solution drips from the leaves. After the peptide solutions were dried, the plants were again randomized in a randomized complete block design. Drought stress was initiated after the peptide treatment. This was caused by maintaining the water level at 25-50% of the maximum capacity for water (capacity was decided as the weight of the pot filled with saturated soil minus the weight of the filled pot prior to adding water).
The drought test phase ended after 2-3 weeks. At that time, the plant height was again measured and the growth rate was calculated as the difference between this and the previously-recorded height. The above-ground part portions of the plants were harvested and weighed to obtain fresh weight. The above-ground portion was also dried in an oven at 70° C. for 72 hours to obtain dry weight. All calculations were compared with matched untreated control plants.
The drought testing procedure was carried out in corn using a treatment of P12, P13-10, P13-11, P13-12, P13-14, P13-4, and P13-15 (SEQ ID NOs: 5, 16, 17, 18, 20, 10, and 21). Asterisks indicate statistical significance by P-value (*: P<0.1 and **: P<0.05)

[3] = tested on: soy; experiment: Drought resistance in seed-treated soy; settings: vs mock
Protocol: The effectiveness of peptide treatment in reducing drought stress was assessed in soy using a seed treatment strategy. This strategy largely mirrors examples 3 and 4.
Seeds were first sieved using mesh screens to a uniform size (14-17 mesh). The seeds were then coated with a mixture of peptide and Unicoat™ seed coat polymer in a Hege 11 Liquid Seed Treater (Wintersteiger) according to manufacturer recommendations. […]
3.5 inch pots were filled (approximately 0.2 L per pot) with Sunshine #1 mix (SunGro Horticulture), fertilized with 14-14-14 N,P,K Osmocote (Everris), and mixed for 20 minutes using a soil mixer M-5. Seeds were planted at a depth of 0.5 inch for germination. The pots were immediately irrigated by submergence then drained after about an hour. For each treatment group, 24 replicate seeds were planted. Plants were grown in a greenhouse under 16 hour light days at ˜75° F. and 8 hour dark nights at ˜65° F. Prior to drought conditions, the plants were well-watered.
Seven days after germination the heights of the plants were measured. This was determined as the distance between the soil surface and the shoot apical meristems (buds). The plants were randomized using a complete block design and subjected to a cyclic drought stress. Drought stress was imposed by withholding water for 3-4 days until the majority of plants were under medium to severe water stress. The severity of the stress was determined by the weight of the pot and visual determination of loss of turgor in the leaves (drooping). Once drought stress was attained, the pots were watered to full saturation. Full Saturation (100% pot capacity) is defined as the weight of the pot filled with water-saturated soil minus the weight of the filled pot prior to adding water. Drought stress was imposed for a total of 18 days.
At the end of the experiment (18 days after initiation of drought stress), the plant above the soil surface was then harvested for fresh and dry weights. Individual plants were cut near the soil surface and weighed immediately (fresh weight). The plants were then placed into labeled brown paper bags and dried in a 70° C. oven for 72 hours. A dry weight was then obtained. The following calculation was performed on the collected data: Fresh weight at harvest, and dry weight at harvest for the peptide-treated plants were expressed as a % change relative to the ‘mock’ treated plants.

Row | Sequence | Effectiveness Covered (% decline in TMV lesions vs UTC) [1] [%] | Effectiveness Uncovered (% decline in TMV lesions vs UTC) [1] | Drought tolerance activity in corn, result in words ([2]; corn foliar spray) | Dry Weight Increase ([2]; foliar spray 0.2 μg/ml) | Fresh Weight Increase ([2]; foliar spray 0.2 μg/ml) | % Change Dry Weight ([3]; soy seed treatment 0.9 μg/seed) [%] | % Change Fresh Weight ([3]; soy seed treatment 0.9 μg/seed) [%] | Dry Weight Increase ([2]; foliar spray 2 μg/ml) | Fresh Weight Increase ([2]; foliar spray 2 μg/ml) [%] | % Change Dry Weight ([3]; soy seed treatment 0.1 μg/seed) [%] | % Change Fresh Weight ([3]; soy seed treatment 0.1 μg/seed) [%]
1 | AGQTSGMSPMEQLMKIFADITQSLFGDQDG (P13-12 peptide) [Peptide P13-12] | 37.9 | 44.1% | affords activity | 7.31* % | 3.93* % | −0.37 | 0.77 | – | – | – | –
2 | DDSLSGAGQTSGMSPMEQLMKIFADITQSLFGDQDG (P13-10 peptide) [Peptide P13-10] | 92.4 | 90.6* % | – | – | – | – | – | 7.56* % | 4.44 | −1.66 | 1.01
3 | LSGAGQTSGMSPMEQLMKIFADITQSLFGDQDG (P13-11 peptide) [Peptide P13-11] | 73.1 | 74.9* % | – | 4.91* % | 3.81* % | 0.16 | 3.42 | – | – | – | –
